Measured values published in patent US8450266B2 (Ipsen Pharma S.A.S., priority 2008, dated 2013).
Where a SMILES comes first, the peptide text is derived from it. [ ]: non-standard residue; d: D form. The star is where a group is joined. Ac6c = NC1(C(=O)O)CCCCC1; X1 = CCCN1C(=O)CC(*)C1=O

Legend:
[1] = Human plasma half-life assay (LC-MS); assay type: in vitro ADME; details: incubated at 37° C., read-out: Human Plasma T½ (converted)
How it was run: (§1)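 Aliquots taken from human or rat plasma at time points up to 72 h, quenched with formic acid and acetonitrile, centrifuged. Supernatant analyzed by LC-MS (ESI, positive ion, full scan) on a C8 column with a water/acetonitrile 1% formic acid gradient.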

[2] = Rat plasma half-life assay (LC-MS); assay type: in vitro ADME; details: incubated at 37° C., read-out: Rat Plasma T½ (converted)
How it was run: as §1

SMILES | half-life at 0.1 mg/mL [1] [h] | half-life at 0.1 mg/mL [2] [h]
CC[C@H](C)[C@H](NC(=O)[C@H](CO)NC(=O)[C@H](Cc1ccc(O)cc1)NC(=O)[C@H](CC(=O)O)NC(=O)[C@H](CO)NC(=O)C1(NC(C)=O)CCCCC1)C(=O)N[C@@H](C)C(=O)N[C@@H](CCSC)C(=O)N[C@@H](CC(=O)O)C(=O)N[C@@H](CCCCN)C(=O)N[C@H](C(=O)N[C@@H](Cc1c[nH]cn1)C(=O)N[C@@H](CCC(N)=O)C(=O)N[C@@H](CCC(N)=O)C(=O)N[C@@H](CC(=O)O)C(=O)N[C@@H](Cc1ccccc1)C(=O)N[C@H](C(=O)N[C@@H](CC(N)=O)C(=O)N[C@@H](Cc1c[nH]c2ccccc12)C(=O)N[C@@H](CC(C)C)C(=O)N[C@@H](CC(C)C)C(=O)N[C@@H](C)C(=O)N[C@@H](CCC(N)=O)C(=O)N[C@@H](CCCCN)C(=O)N[C@@H](Cc1ccc2ccccc2c1)C(=O)N[C@@H](CCCCN)C(=O)N[C@@H](CCCCN)C(=O)N[C@@H](CC(N)=O)C(=O)N[C@@H](CC(=O)O)C(=O)N[C@@H](Cc1c[nH]c2ccccc12)C(=O)N[C@@H](CCCCN)C(=O)N[C@@H](Cc1c[nH]cn1)C(=O)N[C@@H](CC(N)=O)C(=O)N[C@H](C(=O)N[C@H](C(=O)N[C@@H](CCC(N)=O)C(=O)O)[C@@H](C)O)[C@@H](C)CC)C(C)C)[C@@H](C)CC [Example 24, (Ac-A6c^7, 2Nal^31)hGIP(7-42)-OH] (HELM PEPTIDE1{[ac].[O=C(C1(N[*:1])CCCCC1)[*:2]].S.D.Y.S.I.A.M.D.K.I.H.Q.Q.D.F.V.N.W.L.L.A.Q.K.[O=C([C@H](Cc1ccc2ccccc2c1)N[*:1])[*:2]].K.K.N.D.W.K.H.N.I.T.Q}$$$$V2.0) | 26.3 | 12.2
CC[C@H](C)[C@H](NC(=O)[C@H](CO)NC(=O)[C@H](Cc1ccc(O)cc1)NC(=O)[C@H](CC(=O)O)NC(=O)[C@H](CO)NC(=O)C1(NC(C)=O)CCCCC1)C(=O)N[C@@H](C)C(=O)N[C@@H](CCSC)C(=O)N[C@@H](CC(=O)O)C(=O)N[C@@H](CCCCN)C(=O)N[C@H](C(=O)N[C@@H](Cc1c[nH]cn1)C(=O)N[C@@H](CCC(N)=O)C(=O)N[C@@H](CCC(N)=O)C(=O)N[C@@H](CC(=O)O)C(=O)N[C@@H](Cc1ccccc1)C(=O)N[C@H](C(=O)N[C@@H](CC(N)=O)C(=O)N[C@@H](Cc1c[nH]c2ccccc12)C(=O)N[C@@H](CC(C)C)C(=O)N[C@@H](CC(C)C)C(=O)N[C@@H](C)C(=O)N[C@@H](CCC(N)=O)C(=O)N[C@@H](CCCCN)C(=O)N[C@H](Cc1ccc2ccccc2c1)C(=O)N[C@@H](CCCCN)C(=O)N[C@@H](CCCCN)C(=O)N[C@@H](CC(N)=O)C(=O)N[C@@H](CC(=O)O)C(=O)N[C@@H](Cc1c[nH]c2ccccc12)C(=O)N[C@@H](CCCCN)C(=O)N[C@@H](Cc1c[nH]cn1)C(=O)N[C@@H](CC(N)=O)C(=O)N[C@H](C(=O)N[C@H](C(=O)N[C@@H](CCC(N)=O)C(=O)O)[C@@H](C)O)[C@@H](C)CC)C(C)C)[C@@H](C)CC [Example 25, (Ac-A6c^7, D-2Nal^31)hGIP(7-42)-OH] (HELM PEPTIDE1{[ac].[O=C(C1(N[*:1])CCCCC1)[*:2]].S.D.Y.S.I.A.M.D.K.I.H.Q.Q.D.F.V.N.W.L.L.A.Q.K.[O=C([C@@H](Cc1ccc2ccccc2c1)N[*:1])[*:2]].K.K.N.D.W.K.H.N.I.T.Q}$$$$V2.0) | > 50 | 13.7
CCCN1C(=O)CC(SC[C@H](NC(=O)[C@H](CCCCN)NC(=O)[C@H](CCC(N)=O)NC(=O)[C@H](C)NC(=O)[C@H](CC(C)C)NC(=O)[C@H](CC(C)C)NC(=O)[C@H](Cc2c[nH]c3ccccc23)NC(=O)[C@H](CC(N)=O)NC(=O)[C@@H](NC(=O)[C@H](Cc2ccccc2)NC(=O)[C@H](CC(=O)O)NC(=O)[C@H](CCC(N)=O)NC(=O)[C@H](CCC(N)=O)NC(=O)[C@H](Cc2c[nH]cn2)NC(=O)[C@@H](NC(=O)[C@H](CCCCN)NC(=O)[C@H](CC(=O)O)NC(=O)[C@H](CCSC)NC(=O)[C@H](C)NC(=O)[C@@H](NC(=O)[C@H](CO)NC(=O)[C@H](Cc2ccc(O)cc2)NC(=O)[C@H](CC(=O)O)NC(=O)[C@H](CO)NC(=O)C2(NC(C)=O)CCCCC2)[C@@H](C)CC)[C@@H](C)CC)C(C)C)C(=O)N[C@@H](CCCCN)C(=O)N[C@@H](CCCCN)C(=O)N[C@@H](CC(N)=O)C(N)=O)C1=O (stereo partly shown) [Example 28, (Ac-A6c^7, Cys(Psu)^31]hGIP(7-34)-NH2] | 8.8 | 4.1
CCCN1C(=O)CC(SC[C@H](NC(=O)[C@H](CCCCN)NC(=O)[C@H](CCC(N)=O)NC(=O)[C@H](C)NC(=O)[C@H](CC(C)C)NC(=O)[C@H](CC(C)C)NC(=O)[C@H](Cc2c[nH]c3ccccc23)NC(=O)[C@H](CC(N)=O)NC(=O)[C@@H](NC(=O)[C@H](Cc2ccccc2)NC(=O)[C@H](CC(=O)O)NC(=O)[C@H](CCC(N)=O)NC(=O)[C@H](CCC(N)=O)NC(=O)[C@H](Cc2c[nH]cn2)NC(=O)[C@@H](NC(=O)[C@H](CCCCN)NC(=O)[C@H](CC(=O)O)NC(=O)[C@H](CCSC)NC(=O)[C@H](C)NC(=O)[C@@H](NC(=O)[C@H](CO)NC(=O)[C@H](Cc2ccc(O)cc2)NC(=O)[C@H](CC(=O)O)NC(=O)[C@H](CO)NC(=O)C2(NC(C)=O)CCCCC2)[C@@H](C)CC)[C@@H](C)CC)C(C)C)C(N)=O)C1=O (stereo partly shown) [Example 29, [Ac-A6c^7, Cys(Psu)^31]hGIP(7-31)-NH2] | 12.2 | 7
CCCN1C(=O)CC(SC[C@H](NC(=O)[C@H](CCCCN)NC(=O)[C@H](CCC(N)=O)NC(=O)[C@H](C)NC(=O)[C@H](CC(C)C)NC(=O)[C@H](CC(C)C)NC(=O)[C@H](Cc2c[nH]c3ccccc23)NC(=O)[C@H](CC(N)=O)NC(=O)[C@@H](NC(=O)[C@H](Cc2ccccc2)NC(=O)[C@H](CC(=O)O)NC(=O)[C@H](CCC(N)=O)NC(=O)[C@H](CCC(N)=O)NC(=O)[C@H](Cc2c[nH]cn2)NC(=O)[C@@H](NC(=O)[C@H](CCCCN)NC(=O)[C@H](CC(=O)O)NC(=O)[C@H](CCSC)NC(=O)[C@H](C)NC(=O)[C@@H](NC(=O)[C@H](CO)NC(=O)[C@H](Cc2ccc(O)cc2)NC(=O)[C@H](CC(=O)O)NC(=O)[C@H](CO)NC(=O)C2(NC(=O)[C@H](Cc3ccccc3)NC(C)=O)CCCCC2)[C@@H](C)CC)[C@@H](C)CC)C(C)C)C(=O)N[C@@H](CCCCN)C(=O)N[C@@H](CCCCN)C(=O)N[C@@H](CC(N)=O)C(=O)N[C@@H](CC(=O)O)C(=O)N[C@@H](Cc2c[nH]c3ccccc23)C(=O)N[C@@H](CCCCN)C(=O)N[C@@H](Cc2c[nH]cn2)C(=O)N[C@@H](CC(N)=O)C(=O)N[C@H](C(=O)N[C@H](C(=O)N[C@@H](CCC(N)=O)C(=O)O)[C@@H](C)O)[C@@H](C)CC)C1=O (stereo partly shown) [Example 30, [Ac-Phe^6, A6c^7, Cys(Psu)^31]hGIP(6-42)-OH] (Ac-F[Ac6c]SDYSIAMDKIHQQDFVNWLLAQKC(X1)KKNDWKHNITQ-OH) | 7.2 | 7.6
CCCN1C(=O)CC(SC[C@H](NC(=O)[C@H](CCCCN)NC(=O)[C@H](CCC(N)=O)NC(=O)[C@H](C)NC(=O)[C@H](CC(C)C)NC(=O)[C@H](CC(C)C)NC(=O)[C@H](Cc2c[nH]c3ccccc23)NC(=O)[C@H](CC(N)=O)NC(=O)[C@@H](NC(=O)[C@H](Cc2ccccc2)NC(=O)[C@H](CC(=O)O)NC(=O)[C@H](CCC(N)=O)NC(=O)[C@H](CCC(N)=O)NC(=O)[C@H](Cc2c[nH]cn2)NC(=O)[C@@H](NC(=O)[C@H](CCCCN)NC(=O)[C@H](CC(=O)O)NC(=O)[C@H](CCSC)NC(=O)[C@H](C)NC(=O)[C@@H](NC(=O)[C@H](CO)NC(=O)[C@H](Cc2ccc(O)cc2)NC(=O)[C@H](CC(=O)O)NC(=O)[C@H](CO)NC(=O)C2(NC(=O)[C@@H](N)Cc3ccccc3)CCCCC2)[C@@H](C)CC)[C@@H](C)CC)C(C)C)C(=O)N[C@@H](CCCCN)C(=O)N[C@@H](CCCCN)C(=O)N[C@@H](CC(N)=O)C(=O)N[C@@H](CC(=O)O)C(=O)N[C@@H](Cc2c[nH]c3ccccc23)C(=O)N[C@@H](CCCCN)C(=O)N[C@@H](Cc2c[nH]cn2)C(=O)N[C@@H](CC(N)=O)C(=O)N[C@H](C(=O)N[C@H](C(=O)N[C@@H](CCC(N)=O)C(=O)O)[C@@H](C)O)[C@@H](C)CC)C1=O (stereo partly shown) [Example 31, [A6c^7, Cys(Psu)^31]hGIP(6-42)-OH] (H-F[Ac6c]SDYSIAMDKIHQQDFVNWLLAQKC(X1)KKNDWKHNITQ-OH) | 4.4 | 5.1
CC[C@H](C)[C@H](NC(=O)[C@H](CO)NC(=O)[C@H](Cc1ccc(O)cc1)NC(=O)[C@H](CC(=O)O)NC(=O)[C@H](CO)NC(=O)C1(NC(=O)[C@H](Cc2ccccc2)NC(C)=O)CCCCC1)C(=O)N[C@@H](C)C(=O)N[C@@H](CCSC)C(=O)N[C@@H](CC(=O)O)C(=O)N[C@@H](CCCCN)C(=O)N[C@H](C(=O)N[C@@H](Cc1c[nH]cn1)C(=O)N[C@@H](CCC(N)=O)C(=O)N[C@@H](CCC(N)=O)C(=O)N[C@@H](CC(=O)O)C(=O)N[C@@H](Cc1ccccc1)C(=O)N[C@H](C(=O)N[C@@H](CC(N)=O)C(=O)N[C@@H](Cc1c[nH]c2ccccc12)C(=O)N[C@@H](CC(C)C)C(=O)N[C@@H](CC(C)C)C(=O)N[C@@H](C)C(=O)N[C@@H](CCC(N)=O)C(=O)N[C@@H](CCCCN)C(N)=O)C(C)C)[C@@H](C)CC [Example 32, (Ac-Phe^6, A6c^7)hGIP(6-30)-NH2] | 24.1 | 60.3
CCCN1C(=O)CC(SC[C@H](NC(=O)[C@H](CCCCN)NC(=O)[C@H](CCC(N)=O)NC(=O)[C@H](C)NC(=O)[C@H](CC(C)C)NC(=O)[C@H](CC(C)C)NC(=O)[C@H](Cc2c[nH]c3ccccc23)NC(=O)[C@H](CC(N)=O)NC(=O)[C@@H](NC(=O)[C@H](Cc2ccccc2)NC(=O)[C@H](CC(=O)O)NC(=O)[C@H](CCC(N)=O)NC(=O)[C@H](CCC(N)=O)NC(=O)[C@H](Cc2c[nH]cn2)NC(=O)[C@@H](NC(=O)[C@H](CCCCN)NC(=O)[C@H](CC(=O)O)NC(=O)[C@H](CCSC)NC(=O)[C@H](C)NC(=O)[C@@H](NC(=O)[C@H](CO)NC(=O)[C@H](Cc2ccc(O)cc2)NC(=O)[C@H](CC(=O)O)NC(=O)[C@H](CO)NC(=O)C2(NC(=O)[C@H](Cc3ccccc3)NC(C)=O)CCCCC2)[C@@H](C)CC)[C@@H](C)CC)C(C)C)C(N)=O)C1=O (stereo partly shown) [Example 33, [Ac-Phe^6, A6c^7, Cys(Psu)^31]hGIP(6-31)-NH2] | 13.6 | 10.2
